Laboratory results from PubChem BioAssay AID1963967 (Molecular Pharmacology Branch, DTP, NCI, 2024).

Tested on: 855422-203-R-J1-PDC spheroids with HUVEC/MSC, viability
Experiment: Anticancer human tumor 855422-203-R-J1-PDC patient-derived bladder carcinoma cell line growth inhibition [PI3K]
Conditions: for viability, T/C: stronger effect = lower value; active means viability on the fitted dose curve at most 10% of control; inactive means the rest
Summary of the method: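 Targeted small molecules plus PI3K inhibitors, half-log dose series from Cmax (default top 10 microM), were applied to heterotypic spheroids of cancer cells with HUVEC and MSCs. Viability indicated growth inhibition.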

[1] = curve of first compound, second compound 0.0316 µM
[2] = curve of first compound, second compound 0.1 µM
[3] = curve of first compound, second compound 0.316 µM
[4] = curve of first compound, second compound 1 µM
[5] = curve of first compound, second compound 3.16 µM
[6] = curve of first compound, second compound 10 µM
[7] = second compound 0.0316 µM, first compound 0.0316 µM
[8] = second compound 0.0316 µM, first compound 0.1 µM
[9] = second compound 0.0316 µM, first compound 0.316 µM
[10] = second compound 0.0316 µM, first compound 1 µM
[11] = second compound 0.0316 µM, first compound 3.16 µM
[12] = second compound 0.0316 µM, first compound 10 µM
[13] = second compound 0.1 µM, first compound 0.0316 µM
[14] = second compound 0.1 µM, first compound 0.1 µM
[15] = second compound 0.1 µM, first compound 0.316 µM
[16] = second compound 0.1 µM, first compound 1 µM
[17] = second compound 0.1 µM, first compound 3.16 µM
[18] = second compound 0.1 µM, first compound 10 µM
[19] = second compound 0.316 µM, first compound 0.0316 µM
[20] = second compound 0.316 µM, first compound 0.1 µM
[21] = second compound 0.316 µM, first compound 0.316 µM
[22] = second compound 0.316 µM, first compound 1 µM
[23] = second compound 0.316 µM, first compound 3.16 µM
[24] = second compound 0.316 µM, first compound 10 µM
[25] = second compound 1 µM, first compound 0.0316 µM
[26] = second compound 1 µM, first compound 0.1 µM
[27] = second compound 1 µM, first compound 0.316 µM
[28] = second compound 1 µM, first compound 1 µM
[29] = second compound 1 µM, first compound 3.16 µM
[30] = second compound 1 µM, first compound 10 µM
[31] = second compound 3.16 µM, first compound 0.0316 µM
[32] = second compound 3.16 µM, first compound 0.1 µM
[33] = second compound 3.16 µM, first compound 0.316 µM
[34] = second compound 3.16 µM, first compound 1 µM
[35] = second compound 3.16 µM, first compound 3.16 µM
[36] = second compound 3.16 µM, first compound 10 µM
[37] = second compound 10 µM, first compound 0.0316 µM
[38] = second compound 10 µM, first compound 0.1 µM
[39] = second compound 10 µM, first compound 0.316 µM
[40] = second compound 10 µM, first compound 1 µM
[41] = second compound 10 µM, first compound 3.16 µM
[42] = second compound 10 µM, first compound 10 µM
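Further: agents incubated with spheroids for one week before read-out.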
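Wherever viability, T/C is given: 100% = DMSO vehicle-treated control wells.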

CC(Cn1ccc(-c2ccc(C#N)c(Cl)c2)n1)NC(=O)c1cc(C(C)O)[nH]n1 (centres undefined) + Cc1nc(NC(=O)N2CCCC2C(N)=O)sc1-c1ccnc(C(C)(C)C(F)(F)F)c1
< 0.0316 µM: IC50 [5] | IC50 [6]
inactive: viability, T/C [7] 110% | viability, T/C [8] 87.1% | viability, T/C [9] 114% | viability, T/C [10] 102% | viability, T/C [11] 102% | viability, T/C [12] 87.5% | viability, T/C [13] 104% | viability, T/C [14] 94.6% | viability, T/C [15] 105% | viability, T/C [16] 91.6% | viability, T/C [17] 98.5% | viability, T/C [18] 89.2% | viability, T/C [19] 91.2% | viability, T/C [20] 88.2% | viability, T/C [21] 94.4% | viability, T/C [22] 89.6% | viability, T/C [23] 98.1% | viability, T/C [24] 86.7% | viability, T/C [25] 71.7% | viability, T/C [26] 76.7% | viability, T/C [27] 73.9% | viability, T/C [28] 77.8% | viability, T/C [29] 81.3% | viability, T/C [30] 62.3% | viability, T/C [31] 44.9% | viability, T/C [32] 45% | viability, T/C [33] 48.5% | viability, T/C [34] 46.5% | viability, T/C [35] 49.9% | viability, T/C [36] 37% | viability, T/C [37] 24.4% | viability, T/C [38] 22.5% | viability, T/C [39] 22% | viability, T/C [40] 26.9% | viability, T/C [41] 28% | viability, T/C [42] 17.4%
> 10 µM: IC50 [1] | IC50 [2] | IC50 [3] | IC50 [4]

C[C@@H](NC(=O)c1ncnc(N)c1Cl)c1ncc(C(=O)Nc2cc(C(F)(F)F)c(Cl)cn2)s1 + CC(Nc1ncnc2nc[nH]c12)c1cc2cccc(Cl)c2c(=O)n1-c1ccccc1
> 10 µM: IC50 [1] | IC50 [2] | IC50 [3] | IC50 [4] | IC50 [5] | IC50 [6]
inactive: viability, T/C [7] 120% | viability, T/C [8] 109% | viability, T/C [9] 109% | viability, T/C [10] 116% | viability, T/C [11] 131% | viability, T/C [12] 117% | viability, T/C [13] 112% | viability, T/C [14] 100% | viability, T/C [15] 111% | viability, T/C [16] 114% | viability, T/C [17] 116% | viability, T/C [18] 133% | viability, T/C [19] 100% | viability, T/C [20] 115% | viability, T/C [21] 105% | viability, T/C [22] 103% | viability, T/C [23] 136% | viability, T/C [24] 109% | viability, T/C [25] 85.2% | viability, T/C [26] 102% | viability, T/C [27] 101% | viability, T/C [28] 106% | viability, T/C [29] 120% | viability, T/C [30] 107% | viability, T/C [31] 94.8% | viability, T/C [32] 108% | viability, T/C [33] 94.3% | viability, T/C [34] 93.3% | viability, T/C [35] 106% | viability, T/C [36] 82.7% | viability, T/C [37] 82.7% | viability, T/C [38] 75.7% | viability, T/C [39] 93% | viability, T/C [40] 85.6% | viability, T/C [41] 69.6% | viability, T/C [42] 54.4%

Cc1nc(NC(=O)N2CCCC2C(N)=O)sc1-c1ccnc(C(C)(C)C(F)(F)F)c1 (centres undefined)
inactive: viability, T/C (compound 0.0316 µM) 107% [middle of 8 runs] | viability, T/C (compound 1 µM) 75.8% [middle of 8 runs] | viability, T/C (compound 3.16 µM) 43% [middle of 8 runs] | viability, T/C (compound 10 µM) 22.2% [middle of 8 runs]
2.53 µM [middle of 8 runs]: IC50 (compound alone, run of 05/08/2023)
